In the supplement of paper PMC10307832:

Columns and labels:
Assay in all cases: relative viability (nuclei count vs DMSO), 5 days (fraction); higher = more cells survive
ALW-II-49-7 + Tozasertib = compound: Cc1ccc(C(=O)Nc2cccc(C(F)(F)F)c2)cc1Nc1cncc(C(N)=O)c1 [ALW-II-49-7] + Cc1cc(Nc2cc(N3CCN(C)CC3)nc(Sc3ccc(NC(=O)C4CC4)cc3)n2)n[nH]1 [Tozasertib] (partner 0.1 µM)
How it was run: (§1)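 Lung cancer cell lines, seeded in 1536-well plates, were treated the following day by pin tool with a single drug or with five library-drug doses (not always all listed) in √10 steps on top of a fixed anchor-drug dose. Cells were fixed and nuclei stained in one step after 5 days, and nuclei were counted. Relative viability is the nuclei count for treated wells divided by that for vehicle wells, reported as medians of duplicate plates.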

Dasatinib + Tozasertib = compound: Cc1nc(Nc2ncc(C(=O)Nc3c(C)cccc3Cl)s2)cc(N2CCN(CCO)CC2)n1 [Dasatinib] + Cc1cc(Nc2cc(N3CCN(C)CC3)nc(Sc3ccc(NC(=O)C4CC4)cc3)n2)n[nH]1 [Tozasertib] (partner 0.1 µM)
How it was run: as §1

Dasatinib + Bortezomib = compound: Cc1nc(Nc2ncc(C(=O)Nc3c(C)cccc3Cl)s2)cc(N2CCN(CCO)CC2)n1 [Dasatinib] + CC(C)C[C@H](NC(=O)[C@H](Cc1ccccc1)NC(=O)c1cnccn1)B(O)O [Bortezomib] (partner 0.002 µM)
How it was run: as §1

ALW-II-49-7 + Olaparib = compound: Cc1ccc(C(=O)Nc2cccc(C(F)(F)F)c2)cc1Nc1cncc(C(N)=O)c1 [ALW-II-49-7] + O=C(c1cc(Cc2n[nH]c(=O)c3ccccc23)ccc1F)N1CCN(C(=O)C2CC2)CC1 [Olaparib] (partner 8 µM)
How it was run: as §1

Row | Cell Line | relative viability (ALW-II-49-7 + Tozasertib; first compound 0.08 µM) | relative viability (ALW-II-49-7 + Tozasertib; first compound 0.253 µM) | relative viability (ALW-II-49-7 + Tozasertib; first compound 0.8 µM) | relative viability (ALW-II-49-7 + Tozasertib; first compound 2.53 µM) | relative viability (ALW-II-49-7 + Tozasertib; first compound 8 µM) | relative viability (Dasatinib + Tozasertib; first compound 0.005 µM) | relative viability (Dasatinib + Tozasertib; first compound 0.01581 µM) | relative viability (Dasatinib + Tozasertib; first compound 0.05 µM) | relative viability (Dasatinib + Tozasertib; first compound 0.1581 µM) | relative viability (Dasatinib + Tozasertib; first compound 0.5 µM) | relative viability (Dasatinib + Bortezomib; first compound 0.005 µM) | relative viability (Dasatinib + Bortezomib; first compound 0.01581 µM) | relative viability (Dasatinib + Bortezomib; first compound 0.05 µM) | relative viability (Dasatinib + Bortezomib; first compound 0.1581 µM) | relative viability (Dasatinib + Bortezomib; first compound 0.5 µM) | relative viability (ALW-II-49-7 + Olaparib; first compound 0.08 µM) | relative viability (ALW-II-49-7 + Olaparib; first compound 0.253 µM) | relative viability (ALW-II-49-7 + Olaparib; first compound 0.8 µM) | relative viability (ALW-II-49-7 + Olaparib; first compound 2.53 µM) | relative viability (ALW-II-49-7 + Olaparib; first compound 8 µM)
1 | NCI-H1623 | 0.339 | 0.402 | 0.395 | 0.396 | 0.579 | 0.447 | 0.329 | 0.442 | 0.351 | 0.363 |  |  |  |  |  |  |  |  |  | 
2 | HCC-827 | 0.427 | 0.449 | 0.4 | 0.397 | 0.415 | 0.457 | 0.409 | 0.399 | 0.177 | 0.101 | 1.08 | 1.03 | 1.07 | 0.981 | 0.48 | 0.624 | 0.625 | 0.59 | 0.542 | 0.59
3 | NCI-H322M | 0.436 | 0.484 | 0.476 | 0.411 | 0.367 | 0.465 | 0.356 | 0.289 | 0.232 | 0.176 | 1.28 | 1.25 | 1.32 | 0.966 | 0.177 | 0.288 | 0.742 | 0.638 | 0.732 | 0.716
4 | ChaGo-K-1 | 0.248 | 0.238 | 0.22 | 0.212 | 0.2 | 0.23 | 0.203 | 0.207 | 0.21 | 0.186 | 0.847 | 1.03 | 0.99 | 0.891 | 0.864 | 0.384 | 0.427 | 0.394 | 0.411 | 0.39
5 | BEN | 0.331 | 0.524 | 0.512 | 0.515 | 0.632 | 0.516 | 0.412 | 0.489 | 0.415 | 0.406 | 0.628 | 0.439 | 0.425 | 0.315 | 0.362 | 1.12 | 1.11 | 1.18 | 0.548 | 0.98
6 | NCI-H2347 | 0.422 | 0.543 | 0.463 | 0.563 | 0.57 | 0.56 | 0.454 | 0.363 | 0.238 | 0.263 | 0.732 | 0.857 | 0.929 | 0.324 | 0.368 | 0.596 | 0.568 | 0.562 | 0.545 | 0.556
7 | LOU-NH91 | 0.622 | 0.468 | 0.633 | 0.631 | 0.575 | 0.721 | 0.652 | 0.637 | 0.556 | 0.307 | 0.477 | 0.477 | 0.479 | 0.485 | 0.487 | 0.846 | 0.946 | 0.923 |  | 0.805
8 | NCI-H2228 | 0.261 | 0.263 | 0.277 | 0.171 | 0.22 | 0.231 | 0.232 | 0.216 | 0.185 | 0.184 | 0.645 | 0.988 | 0.888 | 0.691 | 0.47 | 0.683 | 0.879 | 0.606 | 0.531 | 0.57
9 | NCI-H2342 | 0.437 | 0.409 | 0.478 | 0.496 | 0.436 | 0.524 | 0.427 | 0.333 | 0.356 | 0.218 |  |  |  |  |  | 0.47 | 0.436 | 0.394 | 0.357 | 0.396
10 | HCC-366 | 0.168 | 0.17 | 0.0962 | 0.0839 | 0.0614 | 0.115 | 0.109 | 0.109 | 0.0407 | 0.0371 | 0.989 | 0.738 | 0.637 | 0.632 | 0.407 | 0.423 | 0.333 | 0.377 | 0.337 | 0.301
11 | NCI-H2405 | 0.73 | 0.692 | 0.687 | 0.642 | 0.547 | 0.639 | 0.468 | 0.448 | 0.222 | 0.161 | 0.879 | 0.956 | 0.616 | 0.475 | 0.306 | 0.856 | 0.97 | 0.86 | 0.811 | 0.785
12 | Calu-6 |  |  |  |  |  |  |  |  |  |  | 0.869 | 0.855 | 0.746 | 0.642 | 0.513 | 0.588 | 0.521 | 0.576 | 0.45 | 0.417
13 | 201T | 0.886 | 0.948 | 0.941 | 0.902 | 0.92 | 0.877 | 0.746 | 0.751 | 0.606 | 0.425 | 1.04 | 0.938 | 1.01 | 0.982 | 0.623 | 0.846 | 0.844 | 0.844 | 0.873 | 0.69
14 | CAL-12T | 0.289 | 0.406 | 0.389 | 0.274 | 0.308 | 0.386 | 0.346 | 0.297 | 0.228 | 0.112 | 0.992 | 1.06 | 0.875 | 0.354 | 0.207 | 0.797 | 0.644 | 0.773 | 0.753 | 0.719
15 | HCC-44 |  | 0.908 | 0.874 | 0.109 | 0.664 | 1.19 | 0.716 | 0.452 | 0.75 | 0.313 | 0.857 | 0.857 | 0.993 | 0.894 | 0.45 | 0.928 | 1.04 | 0.995 | 0.957 | 0.935
16 | NCI-H358 | 0.0887 | 0.107 | 0.11 | 0.0927 | 0.085 | 0.0888 | 0.0863 | 0.101 | 0.084 | 0.0689 |  |  |  |  |  | 0.431 | 0.545 | 0.644 | 0.452 | 0.387
17 | SW 900 | 0.573 | 0.568 | 0.479 | 0.279 | 0.377 | 0.609 | 0.564 | 0.607 | 0.46 | 0.359 |  |  |  |  |  | 0.652 | 0.759 |  | 0.741 | 0.931
